The values below come from ChEMBL document CHEMBL2073762, “Carrier-mediated mechanism for the biliary excretion of the quinolone antibiotic grepafloxacin and its glucuronide in rats” (J Pharmacol Exp Ther, 1998).

The target in data set [1] is T1, ATP-binding cassette sub-family C member 2 (Rattus norvegicus, UniProt Q63120). Put plainly: TP_TRANSPORTER: inhibition of DNP-SG uptake in bile canalicular membrane vesicles from SD rat. It counts as functional, cell membranes, Sprague-Dawley, Bile canalicular membrane vesicle.
Data set [2] has as its target T1, ATP-binding cassette sub-family C member 2. As to the kind of experiment: TP_TRANSPORTER: uptake in bile canalicular membrane vesicles from SD rat. Type of data set: functional, cell membranes, Sprague-Dawley, Bile canalicular membrane vesicle.
For data set [3] the target is unchanged. As to the kind of experiment: TP_TRANSPORTER: uptake in bile canalicular membrane vesicles from EHBR rat. Type of data set: functional, cell membranes, Bile canalicular membrane vesicle.
Data set [4] has the same target. As to the kind of experiment: TP_TRANSPORTER: inhibition of DNP-SG uptake (DNP-SG: 1 uM, LFLX: 10000uM) in bile canalicular membrane vesicles from SD rat. It counts as functional, cell membranes, Sprague-Dawley, Bile canalicular membrane vesicle.
For data set [5] the target is unchanged. Put plainly: TP_TRANSPORTER: inhibition of DNP-SG uptake (DNP-SG: 1 uM, LFLX: 10000uM) in bile canalicular membrane vesicles from EHBR rat. Type of data set: functional, cell membranes, Bile canalicular membrane vesicle.
Data set [6] has the same target. As to the kind of experiment: TP_TRANSPORTER: inhibition of DNP-SG uptakee (DNP-SG: 1 uM, OFLX: 10000 uM) in bile canalicular membrane vesicles from SD rat. Type of data set: functional, cell membranes, Sprague-Dawley, Bile canalicular membrane vesicle.
The target in data set [7] is ATP-binding cassette sub-family C member 2 (ABCC2/Mrp2) (Rattus norvegicus, UniProt Q63120). As to the kind of experiment: TP_TRANSPORTER: inhibition of DNP-SG uptakee (DNP-SG: 1 uM, SPFX: 3000 uM) in bile canalicular membrane vesicles from EHBR rat. Type of data set: functional, cell membranes, Bile canalicular membrane vesicle. On the set-up: scale not given: the % may be the effect or the level left. The note with it: probe DNP-SG (1 uM), read-out: Activity.

Data set [8] deals with T1, ATP-binding cassette sub-family C member 2. Put plainly: TP_TRANSPORTER: inhibition of DNP-SG uptakee (DNP-SG: 1 uM, SPFX: 3000 uM) in bile canalicular membrane vesicles from SD rat. It counts as functional, cell membranes, Sprague-Dawley, Bile canalicular membrane vesicle. On the set-up: scale not given: the % may be the effect or the level left.
Substrate in data set [9]: Cc1c(F)c(N2CCNC(C)C2)cc2c1c(=O)c(C(=O)O[C@@H]1O[C@H](C(=O)O)[C@@H](O)[C@H](O)[C@H]1O)cn2C1CC1
Put plainly: TP_TRANSPORTER: uptake, high affinity component in bile canalicular membrane vesicles from SD rat. It counts as functional, cell membranes, Sprague-Dawley, Bile canalicular membrane vesicle.

In [1], `Cc1c(F)c(N2CCNC(C)C2)cc2c1c(=O)c(C(=O)O[C@@H]1O[C@H](C(=O)O)[C@@H](O)[C@H](O)[C@H]1O)cn2C1CC1` (stereo not given in full) [GREPAFLOXACIN GLUCURONIDE] returned a Ki of 9.2 µM.

In [1], `Cc1c(F)c(N2CCNC(C)C2)cc2c1c(=O)c(C(=O)O)cn2C1CC1` (stereo not given) [GREPAFLOXACIN] showed an inhibitory constant (Ki) of 1890 µM. The Activity entry in [2] and in data set [3] was “substrate [+]” in each case.

For `CCn1cc(C(=O)O)c(=O)c2cc(F)c(N3CCNC(C)C3)c(F)c21` (stereo not given) [LOMEFLOXACIN], the Activity result in data set [4] and in data set [5] was “inhibitor [(at a rough estimate) 50 % of control]” in each case.

As for `CC1COc2c(N3CCN(C)CC3)c(F)cc3c(=O)c(C(=O)O)cn1c23` (stereo not given) [OFLOXACIN], the Activity result in data set [6] is “inhibitor [(at a rough estimate) 50 % of control]”.

In the case of `C[C@@H]1CN(c2c(F)c(N)c3c(=O)c(C(=O)O)cn(C4CC4)c3c2F)C[C@H](C)N1` [SPARFLOXACIN], in data set [7], the activity at 3000 µM was 60%. In data set [8], the Activity is on record as 60%.

B1: ATP-binding cassette sub-family C member 2 (Rattus norvegicus) (protein)
chain: MDKFCNSTFWDLSLLESPEADLPLCFEQTVLVWIPLGFLWLLAPWQLYSVYRSRTKRSSITKFYLAKQVFVVFLLILAAIDLSLALTEDTGQATVPPVRYTNPILYLCTWLLVLAVQHSRQWCVRKNSWFLSLFWILSVLCGVFQFQTLIRALLKDSKSNMAYSYLFFVSYGFQIVLLILTAFSGPSDSTQTPSVTASFLSSITFSWYDRTVLKGYKHPLTLEDVWDIDEGFKTRSVTSKFEAAMTKDLQKARQAFQRRLQKSQRKPEATLHGLNKKQSQSQDVLVLEEAKKKSEKTTKDYPKSWLIKSLFKTFHVVILKSFILKLIHDLLVFLNPQLLKLLIGFVKSSNSYVWFGYICAILMFAVTLIQSFCLQSYFQHCFVLGMCVRTTVMSSIYKKALTLSNLARKQYTIGETVNLMSVDSQKLMDATNYMQLVWSSVIQITLSIFFLWRELGPSILAGVGVMVLLIPVNGVLATKIRNIQVQNMKNKDKRLKIMNEILSGIKILKYFAWEPSFQEQVQGIRKKELKNLLRFGQLQSLLIFILQITPILVSVVTFSVYVLVDSANVLNAEKAFTSITLFNILRFPLSMLPMVTSSILQASVSVDRLERYLGGDDLDTSAIRRVSNFDKAVKFSEASFTWDPDLEATIQDVNLDIKPGQLVAVVGTVGSGKSSLVSAMLGEMENVHGHITIQGSTAYVPQQSWIQNGTIKDNILFGSEYNEKKYQQVLKACALLPDLEILPGGDMAEIGEKGINLSGGQKQRVSLARAAYQDADIYILDDPLSAVDAHVGKHIFNKVVGPNGLLAGKTRIFVTHGIHFLPQVDEIVVLGKGTILEKGSYRDLLDKKGVFARNWKTFMKHSGPEGEATVNNDSEAEDDDDGLIPTMEEIPEDAASLAMRRENSLRRTLSRSSRSSSRRGKSLKNSLKIKNVNVLKEKEKEVEGQKLIKKEFVETGKVKFSIYLKYLQAVGWWSILFIILFYGLNNVAFIGSNLWLSAWTSDSDNLNGTNNSSSHRDMRIGVFGALGLAQGICLLISTLWSIYACRNASKALHGQLLTNILRAPMRFFDTTPTGRIVNRFSGDISTVDDLLPQTLRSWMMCFFGIAGTLVMICMATPVFAIIIIPLSILYISVQVFYVATSRQLRRLDSVTKSPIYSHFSETVTGLPIIRAFEHQQRFLAWNEKQIDINQKCVFSWITSNRWLAIRLELVGNLVVFCSALLLVIYRKTLTGDVVGFVLSNALNITQTLNWLVRMTSEAETNIVAVERISEYINVENEAPWVTDKRPPADWPRHGEIQFNNYQVRYRPELDLVLKGITCNIKSGEKVGVVGRTGAGKSSLTNCLFRILESAGGQIIIDGIDVASIGLHDLRERLTIIPQDPILFSGSLRMNLDPFNKYSDEEVWRALELAHLRSFVSGLQLGLLSEVTEGGDNLSIGQRQLLCLGRAVLRKSKILVLDEATAAVDLETDSLIQTTIRKEFSQCTVITIAHRLHTIMDSDKIMVLDNGKIVEYGSPEELLSNRGSFYLMAKEAGIENVNHTEL
With B1, the Michaelis constant (Km) in data set [9] is 7.2 µM.

What is called Ki is the dissociation constant of the complex between target and ligand, obtained from inhibition or displacement. What is called Km is the substrate concentration at which the rate is half of its maximum.
